Measured values from patent US20170008841A1, “CRYSTAL FORMS OF ASTAXANTHIN” (DSM IP ASSETS B.V., priority 2008, published 2017).
≈ marks a conversion by molar mass, not a printed value. Where two headings read alike, the source gives them in different places. Blank lines part the entries; values can stand above or below the compound they belong to.

Experiments:
Type in all cases: physicochemical
[1] = Solvent-mediated transformation, slurry conversion experiments (XRPD of resulting crystals)
Description: Solvent-mediated polymorphic transformation is an efficient technique to study the phase stability of different crystal forms in various solvents. […] As transformation rates in different solvents vary from minutes to years, an appropriate solvent should be chosen to either facilitate or retard the transformation.
Currently, the choice of a solvent is still done by trial and error, which is time consuming. In accordance with the present invention, the stability test was carried out by the slurry conversion experiments in six different solvents. Form II (and in one case form I) is suspended as the initial form and the resulting crystals were analyzed by XRPD.

[2] = Solubility measurements of astaxanthin form I and II in different solvents
Description: The solubilities of astaxanthin form I and II in different solvents were compared. Due to the very low solubility in some solvents (Isopropanol and corn oil), experiments in these two solvents were measured by using an UV-VIS meter. The saturated solutions were prepared at different temperature in a double jacked vessel and 1 ml of the solution was taken out and measured by the UV-VIS meter. To calculate the real concentration in these solvents, the calibration was made firstly by building up the correlation between absorbance unit and solution concentration.

[3] = Stability of forms I and II in solid form / solid formulations (UV retention)
Description: Two solid formulations of the crystal forms I and II were prepared according to methods mentioned above. The formulations have been analyzed by Raman spectroscopy and—with regard to stability—by UV retention, a commonly used method for stability measurements.
The samples used in this experiment are: • Sample A: crystal form I prepared with methylene chloride • Sample B: crystal form II prepared with chloroform • For both formulations a matrix-composition consisting of a H2O-phase (Ca-Lignosulfonate & Yellow dextrin) and a Oil-phase (CH2Cl2) have been used. • Sample C: As a control commercial product Carophyll Pink 10%-CWS from DSM Nutritional Products Ltd was used. • In this case the following matrix-composition was used: H2O-phase: Ca-Lignosulfonate & Yellow dextrin; Oil-phase: CH2Cl2, & d,l-a-tocopherol, bees wax.)

[4] = Ideal solubility calculated of forms I and II in DCM from melting points and heat of fusion (DSC data)
Excerpt: The ideal solubility can be estimated by using the equation with measured melting points and heat of fusion form DCS data.

Final form after slurry conversion ([1]; Chloroform, 1 day, 20 ° C.): form II | Solubility [2]: 200.0 mg · 100 ml^−1 | solubility [2]: 10 to 20 mg/mL (≈ 16.8 to 33.5 mM) | stable in solid form [3]: at least 5 months | stable in solid form ([3]; 20° C.-40° C.): at least 90 days | Conc. (ideal solubility calculated) [4]: 0.00 g/mL
Compound: CC1=C(/C=C/C(C)=C/C=C/C(C)=C/C=C/C=C(C)/C=C/C=C(C)/C=C/C2=C(C)C(=O)[C@@H](O)CC2(C)C)C(C)(C)C[C@H](O)C1=O (relative stereo) [form I, all-trans-astaxanthin]

Final form after slurry conversion ([1]; DCM, 1 day, 20 ° C.): form I | Final form after slurry conversion ([1]; EtOAc, 4 days, 40 ° C.): form I | Solubility ([2]; Acetone, 20° C.): 9.0 mg · 100 ml^−1 | Solubility ([2]; DCM, 20° C.): 1082.0 mg · 100 ml^−1 | Conc. ([2]; DCM, Exp. T 12.00 ° C.): 0.02 g/mL | Ln X ([2]; DCM, Exp. T 12.00 ° C.): −6.19 | Ratio (Conc.) form II to form I ([2]; DCM, Exp. T 12.00 ° C.): 1.68 | Conc. ([2]; DCM, Exp. T 21.80 ° C.): 0.02 g/mL | Ln X ([2]; DCM, Exp. T 21.80 ° C.): −5.96 | Ratio (Conc.) form II to form I ([2]; DCM, Exp. T 21.80 ° C.): 1.83 | Conc. ([2]; DCM, Exp. T 30.70 ° C.): 0.04 g/mL | Ln X ([2]; DCM, Exp. T 30.70 ° C.): −5.52 | Ratio (Conc.) form II to form I ([2]; DCM, Exp. T 30.70 ° C.): 1.54 | Solubility ([2]; EtOAc, 20° C.): 10.0 mg · 100 ml^−1 | Solubility ([2]; EtOH, 20° C.): 11.8 mg · 100 ml^−1 | Solubility ([2]; IPA, 20° C.): 6.0 mg · 100 ml^−1 | solubility in Isopropanol ([2]; Isopropanol, 30° C.): 3.4 mg·100 ml^−1 | solubility in acetone ([2]; acetone, 20.5° C.): approximately 8 mg·100 ml^−1 | stable in solid form ([3]; 20° C.): at least 90 days | Conc. (ideal solubility calculated) ([4]; DCM, Cal. T 12.00 ° C.): 0.02 g/mL | Ratio (Conc.) form II to form I (ideal solubility calculated) ([4]; DCM, Cal. T 12.00 ° C.): 3530.79 | Conc. (ideal solubility calculated) ([4]; DCM, Cal. T 21.80 ° C.): 0.04 g/mL | Ratio (Conc.) form II to form I (ideal solubility calculated) ([4]; DCM, Cal. T 21.80 ° C.): 1927.23 | Conc. (ideal solubility calculated) ([4]; DCM, Cal. T 30.70 ° C.): 0.06 g/mL | Ratio (Conc.) form II to form I (ideal solubility calculated) ([4]; DCM, Cal. T 30.70 ° C.): 1151.20 | Conc. (ideal solubility calculated) ([4]; DCM, Cal. T 39.00 ° C.): 0.08 g/mL | Ratio (Conc.) form II to form I (ideal solubility calculated) ([4]; DCM, Cal. T 39.00 ° C.): 731.67
Compound: CC1=C(/C=C/C(C)=C/C=C/C(C)=C/C=C/C=C(C)/C=C/C=C(C)/C=C/C2=C(C)C(=O)[C@@H](O)CC2(C)C)C(C)(C)C[C@H](O)C1=O (relative stereo) [form II, all-trans-astaxanthin]
